Earlier results as cited in PMC2637266, “Quantification of gamma-secretase modulation differentiates inhibitor compound selectivity between two substrates Notch and amyloid precursor protein” (Molecular Brain, 2008).

Columns and labels:
[1] = tested on: γ-secretase substrates APP, ErbB-4, and Notch; parameters: method as in PMID 12777371; settings: cited from earlier work
plasma Aβ40 = tested on: plasma Aβ40; parameters: method as in PMID 18090456, PMID 16505324, PMID 18695053; settings: AD patients; cited from earlier work

| Structure (SMILES) | cleavage of γ-secretase substrates at the middle of transmembrane domain [1] | generation of intracellular domains (ICDs) of APP, ErbB-4, and Notch [1] | plasma Aβ40 (plasma Aβ40) | tolerability (plasma Aβ40) |
| --- | --- | --- | --- | --- |
| COc1ccc2c(c1)c(CC(=O)O)c(C)n2C(=O)c1ccc(Cl)cc1 [indomethacin] | specifically block the cleavage | without affecting the generation | – | – |
| CC(C)[C@H](O)C(=O)N[C@@H](C)C(=O)N[C@@H]1C(=O)N(C)CCc2ccccc21.O.O [LY450139 dihydrate] | – | – | reduces plasma Aβ40 | well tolerated |
| CSc1ccc(/C=C2/C(C)=C(CC(=O)O)c3cc(F)ccc32)cc1 [sulindac sulphide] | specifically block the cleavage | without affecting the generation | – | – |
| CC(C)Cc1ccc(C(C)C(=O)O)cc1 (stereo not shown) [ibuprofen] | – | without affecting the generation | – | – |
